Test results as given in ChEMBL document CHEMBL1201862, “PubChem BioAssay data set” (2004).
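Results reflect a 48-hour exposure of cells in 96-well plates to compound at five concentrations. GI50 marks 50% less growth.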 The source made the active and inactive calls. Cut-off read from the data, not from the text of the source: active = GI50 up to about 1.1 µM and inactive = higher.

Experiments:
Test in all cases: NCI tumour cell line growth inhibition, 48 h
[1] = system: ACHN
[2] = system: LOX IMVI
[3] = system: CCRF-CEM
[4] = system: SF-295
[5] = system: SK-MEL-2
[6] = system: SN12C
[7] = system: TK-10
[8] = system: OVCAR-5
[9] = system: A549
[10] = system: OVCAR-3
[11] = system: HCT-15
[12] = system: CAKI-1
[13] = system: EKVX
[14] = system: SW-620
[15] = system: RPMI-8226
[16] = system: KM12
[17] = system: SF-539
[18] = system: OVCAR-8
[19] = system: SF-268
[20] = system: MOLT-4
[21] = system: NCI-H226
[22] = system: SK-MEL-5
[23] = system: HOP-92
[24] = system: M19-MEL
[25] = system: XF498
[26] = system: UACC-257
[27] = system: M14
[28] = system: OVCAR-4
[29] = system: SK-OV-3
[30] = system: KM-20L2
[31] = system: IGROV-1
[32] = system: DMS-114
[33] = system: NCI-H522
[34] = system: RXF 393
[35] = system: SK-MEL-28
[36] = system: UACC-62
[37] = system: SNB-19
[38] = system: 786-0
[39] = system: HCT-116
[40] = system: HT-29
[41] = system: NCI-H460
[42] = system: SNB-78
[43] = system: HOP-62
[44] = system: Malme-3M
[45] = system: DMS-273
[46] = system: UO-31
[47] = system: DLD-1
[48] = system: HCC 2998
[49] = system: COLO 205
[50] = system: U-251
[51] = system: NCI-H23
[52] = system: A498
[53] = system: HL-60
[54] = system: K562
[55] = system: SNB-75
[56] = system: HOP-18
[57] = system: LXFL 529
[58] = system: SR

Brc1cccc(/C=N/C23CC4CC(CC(C4)C2)C3)c1
GI50 [1]: > 100 µM (inactive) | GI50 [2]: > 100 µM (inactive) | GI50 [3]: > 100 µM (inactive) | GI50 [4]: > 100 µM (inactive) | GI50 [5]: > 100 µM (inactive) | GI50 [6]: > 100 µM (inactive) | GI50 [7]: > 100 µM (inactive) | GI50 [8]: > 100 µM (inactive) | GI50 [9]: > 100 µM (inactive) | GI50 [10]: > 100 µM (inactive) | GI50 [11]: > 100 µM | GI50 [12]: > 100 µM (inactive) | GI50 [13]: > 100 µM (inactive) | GI50 [14]: > 100 µM (inactive) | GI50 [15]: > 100 µM (inactive) | GI50 [16]: > 100 µM (inactive) | GI50 [17]: > 100 µM (inactive) | GI50 [18]: > 100 µM (inactive) | GI50 [19]: > 100 µM (inactive) | GI50 [20]: > 100 µM (inactive) | GI50 [21]: > 100 µM (inactive) | GI50 [22]: > 100 µM (inactive) | GI50 [23]: > 100 µM (inactive) | GI50 [24]: > 100 µM (inactive) | GI50 [25]: > 100 µM (inactive) | GI50 [26]: > 100 µM (inactive) | GI50 [27]: > 100 µM (inactive) | GI50 [28]: > 100 µM (inactive) | GI50 [29]: > 100 µM (inactive) | GI50 [30]: > 100 µM (inactive) | GI50 [31]: > 100 µM (inactive) | GI50 [32]: > 100 µM (inactive) | GI50 [33]: > 100 µM (inactive) | GI50 [34]: > 100 µM (inactive) | GI50 [35]: > 100 µM (inactive) | GI50 [36]: > 100 µM (inactive) | GI50 [37]: > 100 µM (inactive) | GI50 [38]: > 100 µM (inactive) | GI50 [39]: > 100 µM (inactive) | GI50 [40]: > 100 µM (inactive) | GI50 [41]: > 100 µM (inactive) | GI50 [42]: > 100 µM (inactive) | GI50 [43]: > 100 µM (inactive) | GI50 [44]: > 100 µM (inactive) | GI50 [45]: > 100 µM (inactive) | GI50 [46]: > 100 µM (inactive) | GI50 [47]: > 100 µM (inactive) | GI50 [48]: > 100 µM (inactive) | GI50 [49]: > 100 µM (inactive) | GI50 [50]: > 100 µM (inactive) | GI50 [51]: > 100 µM (inactive) | GI50 [52]: > 100 µM (inactive) | GI50 [53]: > 100 µM (inactive) | GI50 [54]: > 100 µM (inactive) | GI50 [55]: > 100 µM (inactive) | GI50 [56]: > 100 µM (inactive) | GI50 [57]: > 100 µM (inactive)

CP1(=O)CCCCC1
GI50 [1]: > 100 µM (inactive) | GI50 [2]: > 100 µM (inactive) | GI50 [3]: > 100 µM (inactive) | GI50 [4]: > 100 µM (inactive) | GI50 [5]: > 100 µM (inactive) | GI50 [6]: > 100 µM (inactive) | GI50 [7]: > 100 µM (inactive) | GI50 [8]: > 100 µM (inactive) | GI50 [9]: > 100 µM (inactive) | GI50 [10]: > 100 µM (inactive) | GI50 [11]: > 100 µM | GI50 [12]: > 100 µM (inactive) | GI50 [13]: > 100 µM (inactive) | GI50 [14]: > 100 µM (inactive) | GI50 [15]: > 100 µM (inactive) | GI50 [16]: > 100 µM (inactive) | GI50 [17]: > 100 µM (inactive) | GI50 [18]: > 100 µM (inactive) | GI50 [19]: > 100 µM (inactive) | GI50 [20]: > 100 µM (inactive) | GI50 [21]: > 100 µM (inactive) | GI50 [22]: > 100 µM (inactive) | GI50 [23]: > 100 µM (inactive) | GI50 [24]: > 100 µM (inactive) | GI50 [25]: > 100 µM (inactive) | GI50 [26]: > 100 µM (inactive) | GI50 [27]: > 100 µM (inactive) | GI50 [28]: > 100 µM (inactive) | GI50 [29]: > 100 µM (inactive) | GI50 [30]: > 100 µM (inactive) | GI50 [31]: > 100 µM (inactive) | GI50 [32]: > 100 µM (inactive) | GI50 [34]: > 100 µM (inactive) | GI50 [35]: > 100 µM (inactive) | GI50 [36]: > 100 µM (inactive) | GI50 [37]: > 100 µM (inactive) | GI50 [38]: > 100 µM (inactive) | GI50 [39]: > 100 µM (inactive) | GI50 [40]: > 100 µM (inactive) | GI50 [41]: > 100 µM (inactive) | GI50 [42]: > 100 µM (inactive) | GI50 [58]: > 100 µM (inactive) | GI50 [43]: > 100 µM (inactive) | GI50 [44]: > 100 µM (inactive) | GI50 [45]: > 100 µM (inactive) | GI50 [46]: > 100 µM (inactive) | GI50 [47]: > 100 µM (inactive) | GI50 [48]: > 100 µM (inactive) | GI50 [49]: > 100 µM (inactive) | GI50 [50]: > 100 µM (inactive) | GI50 [51]: > 100 µM (inactive) | GI50 [53]: > 100 µM (inactive) | GI50 [54]: > 100 µM (inactive) | GI50 [55]: > 100 µM (inactive) | GI50 [56]: > 100 µM (inactive) | GI50 [57]: > 100 µM (inactive)
